From ChEMBL document CHEMBL5365399, “Design, synthesis and evaluation of new pyrimidine derivatives as EGFRC797S tyrosine kinase inhibitors” (Bioorg Med Chem Lett, 2023) come the findings set out here.

Assay [1] can be described thus: (§1) Antiproliferative activity against mouse KC-0116 cells by MTT assay. The class given is functional, cell-based. For orientation: Tetrazolium assays rely on reduction of a dye to a coloured formazan, in cell work by metabolically active cells.
Assay [2] concerns HCC827. The experiment in a line: Antiproliferative activity against human HCC827 cells by MTT assay. In kind it is functional, cell-based.
For assay [3], the system named is NCI-H1975. Briefly: Antiproliferative activity against human NCI-H1975 cells by MTT assay. In kind it is functional, cell-based.
Assay [4] can be described thus: Antiproliferative activity against mouse KC-0122 cells by MTT assay. The class given is functional, cell-based.
Assay [5] is described as follows: Induction of apoptosis in mouse KC-0116 cells assessed as viable cells at 300 nM measured after 36 hrs by Annexin V/propidium iodide staining based flow cytometry (reference value: 90.66%). In kind it is functional. To be noted: read-out: Activity.
A short description of assay [6]: Induction of apoptosis in mouse KC-0116 cells assessed as necrotic cells at 100 nM measured after 36 hrs by Annexin V/propidium iodide staining based flow cytometry (reference value: 0.03%). In kind it is functional. (Flow cytometry measures light scatter and fluorescence of single cells or particles in a stream.)
Assay [7] can be described thus: Induction of apoptosis in mouse KC-0116 cells assessed as necrotic cells at 300 nM measured after 36 hrs by Annexin V/propidium iodide staining based flow cytometry (reference value: 0.03%). The class given is functional.
The test system of assay [8] is KC-0116. The experiment in a line: Inhibition of EGFR-del19/T790M/C797S in mouse KC-0116 cells assessed as reduction in EGFR phosphorylation measured after 8 hrs by Western blot analysis. The class given is cell-based. Conditions: dose 0.3-3 µM. Background: In western blotting, separated proteins are transferred to a membrane and probed.
The test system of assay [9] is KC-0116. The assay is described as §1. In kind it is functional, cell-based.
Assay [10] can be described thus: Induction of apoptosis in mouse KC-0116 cells assessed as early apoptotic cells at 300 nM measured after 36 hrs by Annexin V/propidium iodide staining based flow cytometry (reference value: 6.85%). In kind it is functional.
Assay [11] in a line: Induction of apoptosis in mouse KC-0116 cells assessed as late apoptotic cells at 300 nM measured after 36 hrs by Annexin V/propidium iodide staining based flow cytometry (reference value: 2.47%). The class given is functional.
Assay [12] deals with KC-0116. Briefly: Inhibition of EGFR-del19/T790M/C797S in mouse KC-0116 cells assessed as reduction in AKT phosphorylation measured after 8 hrs by Western blot analysis. The class given is cell-based. To be noted: dose 0.3-3 µM.
The nature of assay [13]: Induction of apoptosis in mouse KC-0116 cells assessed as early apoptotic cells at 100 nM measured after 36 hrs by Annexin V/propidium iodide staining based flow cytometry (reference value: 6.85%). The class given is functional.
Assay [14] deals with KC-0116. Briefly: Cell cycle arrest in mouse KC-0116 cells assessed as increase in cell population at G2/M-phase at 0.1 to 0.3 uM measured after 48 hrs by flow cytometry. The class given is functional, cell-based. Conditions: dose 0.1-0.3 µM.
Assay [15] in a line: Induction of apoptosis in mouse KC-0116 cells assessed as viable cells at 100 nM measured after 36 hrs by Annexin V/propidium iodide staining based flow cytometry (reference value: 90.66%). In kind it is functional. Conditions: read-out: Activity.
The test system of assay [16] is A-431. The experiment in a line: Antiproliferative activity against human A-431 cells by MTT assay. In kind it is functional, cell-based.
Assay [17] in a line: Induction of apoptosis in mouse KC-0116 cells assessed as late apoptotic cells at 100 nM measured after 36 hrs by Annexin V/propidium iodide staining based flow cytometry (reference value: 2.47%). In kind it is functional.
For assay [18], the system named is KC-0116. Briefly: Induction of apoptosis in mouse KC-0116 cells measured after 36 hrs by Annexin V/propidium iodide staining based flow cytometry. The class given is functional, cell-based. Conditions: dose 0.1-3 µM.
Assay [19] is described as follows: Antiproliferative activity against mouse Ba/F3 EGFR-T790M/C797S/L858R cells. In kind it is functional, cell-based.
Assay [20] in a line: Antiproliferative activity against mouse Ba/F3 EGFR-Del19/T790M/C797S cells. In kind it is functional, cell-based.

Active and inactive are the calls of the source. The calls are words filed in the database; no cut-off is given here.

Broadly, the IC50 is the midpoint of a concentration-inhibition curve. A low value points to greater potency. In turn, `CN1CCN(c2ccc(Nc3ncc(Br)c(NCc4ccccn4)n3)cc2)CC1` registered an IC50 in [1] of 1310 nM.

For the molecule `C=CC(=O)Nc1cc(Nc2nccc(-c3cn(C)c4ccccc34)n2)c(OC)cc1N(C)CCN(C)C` [OSIMERTINIB], the IC50 in assay [2] was 1 nM; in assay [3], […]; in [4], 1530 nM; in assay [1], 1430 nM.

`CN1CCN(c2ccc(Nc3ncc(Br)c(N[C@@H]4CCN(S(=O)(=O)C5CC5)C4)n3)cc2)CC1` yielded an IC50 in assay [1] of 3010 nM.

For the molecule `CN(C)C1CCN(c2ccc(Nc3ncc(Cl)c(N[C@@H]4CCCN(C(=O)CO)C4)n3)cc2)CC1`, in [1], the IC50 is > 3300 nM.

For `CN1CCN(c2ccc(Nc3ncc(Br)c(N[C@@H]4CCCN(S(=O)(=O)C5CC5)C4)n3)cc2)CC1`, in assay [5], the viability at 0.3 µM is 80.2%. Besides, the IC50 is > 3300 nM in assay [2]; > 3300 nM in assay [3]; 210 nM in assay [4]; 200 nM in [1]; 620 nM in [16]. The Activity in assay [6] was 0.01%; in assay [7], 0%; in assay [9] it was “Dose-Dependent Effect”; in assay [10], 14.6%; in assay [11], 5.19%; in [13] it was 11.51%. The Activity is 4.61% in assay [17] and “Dose-Dependent Effect” in [18]. Also, the inhibition result in assay [8] and in assay [12] was “Dose-Dependent Effect” throughout. Further, in assay [14], the outcome was Active. Moreover, the viability at 0.1 µM in assay [15] worked out at 83.9%.

`CN1CCN(c2ccc(Nc3ncc4c5ccccc5n(-c5cccc(NS(C)(=O)=O)c5)c4n3)cc2)CC1`: in assay [1], the IC50 is > 3300 nM.

For the molecule `CN(C)C1CCN(c2ccc(Nc3ncc(Cl)c(N[C@H]4CCN(S(=O)(=O)C5CC5)C4)n3)cc2)CC1`, the IC50 in [1] was > 3300 nM.

For the molecule `CN1CCN(c2ccc(Nc3ncc(Cl)c(N[C@H]4CC[C@H](O)CC4)n3)cc2)CC1`, in assay [1], the IC50 turned out to be 310 nM.

`CN(C)C1CCN(c2ccc(Nc3ncc(Br)c(N[C@H]4CC[C@H](O)CC4)n3)cc2)CC1` came in with an IC50 in [1] of 480 nM.

On to `CN1CCN(c2ccc(Nc3ncc4c5ccccc5n(-c5cccc(NC(=O)CO)c5)c4n3)cc2)CC1`, for which, in [1], the IC50 is > 3300 nM.

On to `CN1CCN(c2ccc(Nc3ncc(-c4ccccc4)c(N[C@H]4CCN(S(=O)(=O)C5CC5)C4)n3)cc2)CC1`, for which the IC50 in assay [1] is > 3300 nM.

`CN1CCN(c2ccc(Nc3ncc(Br)c(NC4CCN(S(=O)(=O)C5CC5)CC4)n3)cc2)CC1` returned an IC50 in [1] of 1100 nM.

In [1], `CN(C)C1CCN(c2ccc(Nc3ncc(Cl)c(N[C@H]4CCCN(C(=O)CO)C4)n3)cc2)CC1` yielded an IC50 of 1660 nM.

`CN(C)C1CCN(c2ccc(Nc3ncc(Cl)c(NC4CCN(C(=O)CO)CC4)n3)cc2)CC1`: in assay [1], the IC50 was determined as 2460 nM.

Turning to `CN1CCN(c2ccc(Nc3ncc(C(F)(F)F)c(N[C@H]4CC[C@H](O)CC4)n3)cc2)CC1`, in assay [1], the IC50 was > 3300 nM.

For the molecule `CN1CCN(c2ccc(Nc3ncc4c5ccccc5n(-c5cccc(NCCO)c5)c4n3)cc2)CC1`, the IC50 in assay [1] was > 3300 nM.

Consider `CN1CCN(c2ccc(Nc3ncc4c5ccccc5n([C@H]5CCN(S(=O)(=O)C6CC6)C5)c4n3)cc2)CC1`, for which the IC50 in assay [1] was > 3300 nM.

Molecule `CC(=O)N1CCC(Nc2nc(Nc3ccc(N4CCN(C)CC4)cc3)ncc2Br)CC1` had an IC50 in assay [1] of 950 nM.

Take `CN1CCN(c2ccc(Nc3ncc(Br)c(N[C@H]4CCN(S(=O)(=O)C5CC5)C4)n3)cc2)CC1`: the midpoint of inhibition in [1], the IC50, lay at 1130 nM.

On to `COc1cc(N2CCC(N3CCN(C)CC3)CC2)ccc1Nc1ncc(Cl)c(Nc2ccccc2P(C)(C)=O)n1` [BRIGATINIB], for which the viability at 0.3 µM in [5] worked out at 90.8%. For the same molecule, the IC50 in [2] turned out to be 13 nM; in assay [19], 5.57 nM; in [3] it was 830 nM; in [4] it was 440 nM; in [1] it was 360 nM; in [16], 500 nM. The values for the Activity in [7], in assay [10] and in assay [11] were 0.02%, 7.2% and 1.94%, respectively.

With `CN(C)C1CCN(c2ccc(Nc3ncc(Cl)c(N[C@H]4CCN(C(=O)CO)C4)n3)cc2)CC1`, the IC50 in [1] was > 3300 nM.

In [1], `CN1CCN(c2ccc(Nc3ncc(Br)c(Nc4cccc(NC(=O)CN)c4)n3)cc2)CC1` registered an IC50 of 440 nM.

On to `CN1CCN(c2ccc(Nc3ncc4c5ccccc5n(-c5ccc(NC(=O)CN)cc5)c4n3)cc2)CC1`, for which the IC50 in assay [1] was > 3300 nM.

Molecule `CN(C)C1CCN(c2ccc(Nc3ncc(Cl)c(N[C@@H]4CCN(S(=O)(=O)C5CC5)C4)n3)cc2)CC1` came in with a half-inhibitory concentration (IC50) in assay [1] of 460 nM.

In [1], `CN1CCN(c2ccc(Nc3ncc(Br)c(NC4CCN(S(C)(=O)=O)CC4)n3)cc2)CC1` returned an IC50 of 940 nM.

For `CN1CCN(c2ccc(Nc3ncc(Br)c(N[C@H]4CC[C@H](O)CC4)n3)cc2)CC1`, the IC50 was 650 nM in [2]; 580 nM in assay [3]; 250 nM in assay [4]; 240 nM in assay [1]; > 3300 nM in assay [16].

As for `CN1CCN(c2ccc(Nc3ncc(Br)c(N[C@H]4CCCN(S(=O)(=O)C5CC5)C4)n3)cc2)CC1`, the IC50 in assay [1] amounted to 2000 nM.

For the molecule `COc1cc(N2CCC(N3CCN(C)CC3)CC2)c(C)cc1Nc1ncc(Br)c(Nc2ccc3nccnc3c2P(C)(C)=O)n1`, the concentration for half-maximal inhibition (IC50) came to 0.16 nM in [20] and 0.21 nM in [19].

Consider `CN1CCN(c2ccc(Nc3ncc(Br)c(NC4CCOCC4)n3)cc2)CC1`, for which the IC50 in assay [1] worked out at 710 nM.

For the molecule `CN1CCN(c2ccc(Nc3ncc4c5ccc(OC(F)(F)F)cc5n(-c5cccc(NC(=O)CN)c5)c4n3)cc2)CC1`, the IC50 in assay [1] was > 3300 nM.

Take `CN1CCN(c2ccc(Nc3ncc(-c4ccccc4)c(Nc4cccc(NC(=O)CN)c4)n3)cc2)CC1`: the IC50 in [1] is > 3300 nM.
